From ChEMBL document CHEMBL1201862, “PubChem BioAssay data set” (2004)
Calls of active or inactive are those of the source.

Experiments:
[1] = biological target: FAD-linked sulfhydryl oxidase ALR (Homo sapiens, UniProt P55789); assay: ALR-catalysed DTT oxidation blockers – biochemical, H2O2 detection, luminescence, cherry-pick, dose response (AID 493248)
[2] = Luminescence Cell-Based Dose Response HTS to Identify Activators of Luciferase Translation or Activity in H4 […] Cells. [Related pubchem assays: 1829 (Project Summary), 1814 (Primary HTS)]; type: functional
[3] = biological target: T1, Calpain-2 catalytic subunit (Sus scrofa, UniProt P43367); assay: m-calpain protease blockers, concentration series – biochemical, fluorogenic peptide substrate, dose response (AID 1420); type: functional
T1 sequence (P43367 whole entry): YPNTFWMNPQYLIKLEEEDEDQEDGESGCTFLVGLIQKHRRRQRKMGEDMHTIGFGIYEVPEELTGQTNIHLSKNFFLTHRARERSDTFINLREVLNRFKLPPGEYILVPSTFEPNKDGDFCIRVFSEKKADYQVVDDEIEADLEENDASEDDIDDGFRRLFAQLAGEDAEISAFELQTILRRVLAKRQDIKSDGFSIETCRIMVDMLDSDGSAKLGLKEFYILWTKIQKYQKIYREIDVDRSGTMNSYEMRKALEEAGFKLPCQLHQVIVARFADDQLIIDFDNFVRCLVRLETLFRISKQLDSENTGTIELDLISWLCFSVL

[4] = microbe, parasite or virus in culture; type: functional; details: Mycobacterium tuberculosis
[5] = biological target: T2, Heat shock factor protein 1 (Mus musculus, UniProt P38532); assay: decrease of HSF1-responsive luciferase luminescence – cell-based, NIH3T3, dose retest, confirmation (AID 2382); type: functional;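 note: NIH3T3 fibroblasts with HSF1-driven luciferase reporter stressed by proteasome inhibitor MG132; luminescence from HSF1-driven luciferase expression after 8 hours of MG132 stress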
T2 sequence (P38532 whole entry): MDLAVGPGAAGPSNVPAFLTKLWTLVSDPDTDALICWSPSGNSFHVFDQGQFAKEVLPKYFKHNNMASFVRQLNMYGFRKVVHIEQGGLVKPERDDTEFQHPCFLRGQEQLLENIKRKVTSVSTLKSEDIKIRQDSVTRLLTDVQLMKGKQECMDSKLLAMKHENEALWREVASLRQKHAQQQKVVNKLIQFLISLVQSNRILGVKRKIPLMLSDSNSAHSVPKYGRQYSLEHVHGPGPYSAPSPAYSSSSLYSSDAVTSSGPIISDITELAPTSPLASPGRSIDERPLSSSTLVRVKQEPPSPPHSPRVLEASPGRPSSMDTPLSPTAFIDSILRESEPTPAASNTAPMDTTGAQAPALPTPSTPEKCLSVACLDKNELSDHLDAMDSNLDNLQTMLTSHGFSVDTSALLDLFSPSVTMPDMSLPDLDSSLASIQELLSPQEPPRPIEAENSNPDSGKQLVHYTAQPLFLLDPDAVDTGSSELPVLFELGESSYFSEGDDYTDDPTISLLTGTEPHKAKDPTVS

HEK293 = assay: EBV LMP1 TES2 canonical NF-kB signalling blockers – cell-based, HEK293, luciferase, cherry-pick, dose response (AID 588343); type: functional; details: Homo sapiens
Genome polyprotein = Genome polyprotein (dengue virus type 2, UniProt P29990); assay: flavivirus cap methylation enzyme inhibition – biochemical, confirmation dose response, primary screen (AID 588689); type: functional
[6] = biological target: T3, Rac GTPase-activating protein 1 (Homo sapiens, UniProt Q9H0H5); assay: blockers of MgcRacGAP-driven Rac1 GTP hydrolysis – biochemical, ADP Hunter fluorescence, primary and confirmatory, confirmation (AID 624330); type: functional
T3 sequence (Q9H0H5 whole entry): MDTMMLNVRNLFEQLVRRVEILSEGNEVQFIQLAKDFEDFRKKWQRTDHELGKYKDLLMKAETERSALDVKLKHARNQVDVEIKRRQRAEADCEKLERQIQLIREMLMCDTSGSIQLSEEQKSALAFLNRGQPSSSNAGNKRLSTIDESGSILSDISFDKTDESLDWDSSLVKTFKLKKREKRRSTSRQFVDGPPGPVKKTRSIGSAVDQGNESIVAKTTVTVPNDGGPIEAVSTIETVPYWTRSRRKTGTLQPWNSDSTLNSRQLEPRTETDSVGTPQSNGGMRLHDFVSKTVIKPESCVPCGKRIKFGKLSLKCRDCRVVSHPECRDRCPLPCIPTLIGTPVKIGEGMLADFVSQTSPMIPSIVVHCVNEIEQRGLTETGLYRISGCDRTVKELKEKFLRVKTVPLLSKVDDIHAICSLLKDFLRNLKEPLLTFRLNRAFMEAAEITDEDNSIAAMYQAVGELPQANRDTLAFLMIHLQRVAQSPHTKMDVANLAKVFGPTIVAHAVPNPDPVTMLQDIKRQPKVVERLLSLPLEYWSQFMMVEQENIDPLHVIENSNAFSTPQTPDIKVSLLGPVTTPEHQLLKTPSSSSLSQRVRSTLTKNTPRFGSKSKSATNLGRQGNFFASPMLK

[7] = luciferase reporter signal suppression in cells – H4 neuroglioma cells, luminescence, dose response (AID 1990); type: functional, cell-based
[8] = alpha-synuclein stem-loop luciferase translation blockers – H4 neuroglioma cells, luminescence, confirmation (AID 1988); type: functional, cell-based
[9] = Luminescence Cell-Based Dose Response HTS to Identify Inhibitors of 5'UTR Stem-Loop Driven Prion Protein mRNA Translation in H4 Neuroglioblastoma Cells. [Related pubchem assays: 1827 (Project Summary), 1813 (Primary HTS)]; type: functional
BJ [10] = assay: BJ-TERT-LT-ST fibroblast viability loss – cell-based, RAS-independent, luminescence, dose response (AID 1935); type: functional; details: Homo sapiens;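 note: BJ fibroblasts immortalized with TERT plus LT and ST oncogenes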
BJ [11] = assay: cells; type: functional, cell-based; details: Homo sapiens
[12] = DRD fibroblast viability loss – cell-based, non-viral oncogenic, luminescence, dose response (AID 1934); type: functional; details: Homo sapiens
BJ [13] = assay: BJ-TERT fibroblast viability loss – cell-based, RAS-independent, luminescence, dose response (AID 1933); type: functional; details: Homo sapiens
[14] = Trypanosoma cruzi growth suppression in host cells – NIH3T3 host cells, beta-gal luminescence, confirmation (AID 2044); type: functional, cell-based;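 note: intracellular parasites grown in NIH/3T3 mouse fibroblasts as host cells; luminescent beta-galactosidase reporter signal from transgenic T. cruzi replicating inside host cells; inhibitors lower the luminescence signal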
[15] = NIH3T3 cell viability loss – ATP luminescence, mouse fibroblasts, counter-screen, dose response (AID 2010); type: functional, cell-based;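 note: cells exposed to compound for about 90 hours before reading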
[16] = biological target: Luciferin 4-monooxygenase (Photinus pyralis, UniProt P08659); assay: inhibition of purified Photinus pyralis luciferase – biochemical, luminescence, dose response (AID 1891)
Cytochrome P450 2C9 = Cytochrome P450 2C9 (Homo sapiens, UniProt P11712)
[17] = Luminescence Cell-Based Dose Confirmation HTS to Identify Inhibitors of Platelet Dense Granule Release. [Related pubchem assays: 1663 (Primary HTS), 1678 (Summary of Project)]; type: functional

Chain of Genome polyprotein (P29990 2492-3391 limits assumed): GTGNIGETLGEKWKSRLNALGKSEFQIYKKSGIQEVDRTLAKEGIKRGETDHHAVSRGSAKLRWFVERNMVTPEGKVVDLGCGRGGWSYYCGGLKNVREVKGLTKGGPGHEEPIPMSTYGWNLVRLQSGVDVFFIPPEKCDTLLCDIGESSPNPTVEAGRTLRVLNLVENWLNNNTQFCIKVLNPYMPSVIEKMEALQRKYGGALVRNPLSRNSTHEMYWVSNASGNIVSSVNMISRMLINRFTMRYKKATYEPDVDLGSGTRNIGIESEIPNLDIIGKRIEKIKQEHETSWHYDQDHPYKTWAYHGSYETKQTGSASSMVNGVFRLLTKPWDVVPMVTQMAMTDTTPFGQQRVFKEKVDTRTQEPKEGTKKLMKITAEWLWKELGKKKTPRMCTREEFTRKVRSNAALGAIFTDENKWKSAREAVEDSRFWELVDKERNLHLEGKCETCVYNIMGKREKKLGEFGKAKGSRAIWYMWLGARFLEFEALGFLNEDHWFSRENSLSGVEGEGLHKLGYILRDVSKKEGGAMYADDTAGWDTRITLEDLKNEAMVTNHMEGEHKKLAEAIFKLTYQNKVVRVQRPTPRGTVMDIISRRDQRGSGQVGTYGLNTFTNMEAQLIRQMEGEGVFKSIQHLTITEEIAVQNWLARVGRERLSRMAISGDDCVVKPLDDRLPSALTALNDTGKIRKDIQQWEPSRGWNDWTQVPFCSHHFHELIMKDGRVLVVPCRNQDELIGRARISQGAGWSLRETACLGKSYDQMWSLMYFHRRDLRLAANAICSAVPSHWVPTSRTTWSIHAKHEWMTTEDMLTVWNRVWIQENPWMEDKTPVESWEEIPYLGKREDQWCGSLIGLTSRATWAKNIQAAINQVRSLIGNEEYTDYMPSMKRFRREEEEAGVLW
Chain of FAD-linked sulfhydryl oxidase ALR (P55789 whole entry): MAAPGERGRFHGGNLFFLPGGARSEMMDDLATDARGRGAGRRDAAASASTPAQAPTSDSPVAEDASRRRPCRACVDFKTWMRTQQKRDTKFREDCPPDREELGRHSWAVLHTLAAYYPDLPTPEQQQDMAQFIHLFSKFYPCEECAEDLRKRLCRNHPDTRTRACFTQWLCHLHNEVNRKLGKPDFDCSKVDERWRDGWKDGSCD
Chain of Cytochrome P450 2C9 (P11712 whole entry): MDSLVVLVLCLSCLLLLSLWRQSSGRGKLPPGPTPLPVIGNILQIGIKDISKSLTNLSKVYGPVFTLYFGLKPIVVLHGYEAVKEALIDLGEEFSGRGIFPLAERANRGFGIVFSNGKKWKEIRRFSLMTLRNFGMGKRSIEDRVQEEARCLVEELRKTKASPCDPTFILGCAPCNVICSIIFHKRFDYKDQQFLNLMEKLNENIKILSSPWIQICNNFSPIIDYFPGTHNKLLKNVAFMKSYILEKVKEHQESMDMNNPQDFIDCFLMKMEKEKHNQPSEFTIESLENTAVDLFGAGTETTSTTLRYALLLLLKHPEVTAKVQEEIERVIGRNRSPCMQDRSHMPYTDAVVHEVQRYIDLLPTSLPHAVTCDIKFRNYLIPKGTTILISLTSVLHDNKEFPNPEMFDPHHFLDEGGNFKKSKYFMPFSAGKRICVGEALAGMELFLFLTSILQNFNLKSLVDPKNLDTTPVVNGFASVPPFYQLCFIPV
Chain of Luciferin 4-monooxygenase (P08659 whole entry): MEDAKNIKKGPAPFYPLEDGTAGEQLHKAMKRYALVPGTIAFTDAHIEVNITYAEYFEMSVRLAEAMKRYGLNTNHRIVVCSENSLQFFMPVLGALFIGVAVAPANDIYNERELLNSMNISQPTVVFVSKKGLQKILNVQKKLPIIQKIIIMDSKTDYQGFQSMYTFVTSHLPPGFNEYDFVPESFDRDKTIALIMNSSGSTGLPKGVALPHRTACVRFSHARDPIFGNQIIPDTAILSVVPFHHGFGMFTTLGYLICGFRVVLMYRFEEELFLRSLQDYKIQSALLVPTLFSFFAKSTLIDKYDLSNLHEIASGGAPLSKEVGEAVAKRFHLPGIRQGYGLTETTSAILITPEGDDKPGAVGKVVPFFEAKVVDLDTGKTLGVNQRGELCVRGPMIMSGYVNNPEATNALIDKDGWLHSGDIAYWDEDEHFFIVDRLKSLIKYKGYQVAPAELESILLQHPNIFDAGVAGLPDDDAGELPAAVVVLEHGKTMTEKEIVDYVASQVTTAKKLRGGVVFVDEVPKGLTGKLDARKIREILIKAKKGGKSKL

In the case of `Cc1cc(N)n2ncc(-c3ccccc3)c2n1`, the AC50 [1] is reported as 18.9 µM (active) and the EC50 [2] is reported as 0.137 µM (active).

With `Cc1cc(NC(=O)c2ccc3c(c2)C(=O)N(CCC(C)C)C3=O)no1` the IC50 [3] was 17.2 µM (not active).

In the case of `COc1ccc(-c2csc3ncnc(N4CCN(c5ccccc5OC)CC4)c23)cc1`, the CC50 [4] is reported as > 40 µM (active).

For `COc1ccc(CC(=O)Nc2ccccc2N2CCCC2)cc1OC`, the AC50 [1] was 12.6 µM (active).

For `CCOC(=O)c1cnc2c(Cl)ccc(Cl)c2c1O`, the IC50 [3] was 17.3 µM (not active).

For `COc1cc2cc(C(=O)Nc3ccc4c(c3)OCCO4)[nH]c2cc1OC`, the EC50 [5] was 0.907 µM (active) and the AC50 (HEK293) was 0.595 µM (active).

For `CC(C)c1ccc(NC(=O)Cc2c(C(=O)O)n(C)c3ccccc23)cc1`, the AC50 [1] was 6.73 µM (active).

For `COc1ccc2c(c1OC)C(=O)OC2c1c(O)n(Cc2ccc(F)cc2)c(=O)[nH]c1=O` (centres undefined), the IC50 (Genome polyprotein) was 69.7 µM (active).

For `CCCN(C#N)c1nc(NCC)nc(NC(C)C)n1`, the IC50 [3] was > 50 µM (not active).

For `Cc1ccc(C(C2=C(O)CC(C)(C)CC2=O)C2C(=O)CC(C)(C)CC2=O)s1` (centres undefined), the IC50 [6] was 62.9 µM (active) and the IC50 (Genome polyprotein) was 29.4 µM (active).

With `COc1cc(OC)cc(C(=O)c2c(C)c(C#N)c3ccccn23)c1` the EC50 [7] was 15 µM (active), the EC50 [8] was 2.6 µM (active) and the EC50 [9] was > 120 µM (not active). The EC50 (BJ [10]) was 1.46 µM (inconclusive), the EC50 (BJ [11]) was 0.769 µM (active) and the EC50 [12] was 1.49 µM (active). For the same compound, the EC50 (BJ [13]) was 2.54 µM (active).

For `CCOc1ccc(-c2cnc(NCc3cccc4ccccc34)n2CCOC)cc1`, the EC50 [5] was > 195 µM (not active), the EC50 [14] was 0.979 µM (active) and the EC50 [15] was > 60 µM (not active). The CC50 [4] was 12.2 µM (active).

In the case of `COc1ccc(CC(=O)N2CCN(c3ccc(C4=NNC(=O)CC4C)cc3)CC2)cc1` (centres undefined), the EC50 [16] is reported as > 112 µM (not active), the AC50 [1] is reported as 20.8 µM (active) and the AC50 (Cytochrome P450 2C9) is reported as 8.91 µM (inconclusive). The EC50 [17] was < 0.088 µM (active).

For `Nc1c(C(=O)O)sc2nc(-c3ccccc3)cc(-c3ccc(Cl)cc3)c12`, the EC50 [5] was > 195 µM (not active) and the IC50 (Genome polyprotein) was 70.8 µM (active).

In the case of `Cc1cc([N+](=O)[O-])nn1CCCC(=O)Nc1cc(Oc2ccccc2)cc([N+](=O)[O-])c1`, the IC50 [3] is reported as 5.32 µM (not active).

For `CC(O)CNc1nc2ccccc2n1-c1ncnc2sc3c(c12)CCC3` (centres undefined), the CC50 [4] was 29.6 µM (active).

With `CCN(CCCNC(=O)CCn1c(=O)[nH]c2ccsc2c1=O)c1ccccc1` the IC50 [3] was < 0.4 µM (not active) and the EC50 [5] was > 195 µM (not active).
